Data taken from patent US11053239B2, “Compounds as BLC-2-selective apoptosis-inducing agents” (Fochon Pharmaceuticals, Ltd., priority 2017, dated 2021).
Read-outs that look alike come from different tables or passages of the source.

Tests used:
RS4; 11 cells = experiment: Cell proliferation assay (MTS), RS4; 11 cells; type: cell-based; settings: Homo sapiens, RS4-11, 72 h, read-out: RS4
How it was run: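 RS4;11 (30000 cells/well, 72 h) and DOHH2 (5000 cells/well, 120 h) cells in RPMI-1640/10% FBS, treated at 37 °C with compound at 1.5–10000 nM final. Viability by MTS (2 h, SDS stop), absorbance 490 nm minus 650 nm reference; IC50 fitted.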

DOHH2 cells = experiment: Cell proliferation assay (MTS), DOHH2 cells; type: cell-based; settings: Homo sapiens, DOHH-2, 120 h
From the text: MTS testing kit was purchased from Promega. The RPMI-1640, Fetal bovine serum and Penicillin-Streptomycin were purchased from Gibco. Dimethyl sulfoxide (DMSO) was purchased from Sigma.
To investigate whether a compound is able to inhibit the activity of Bcl-2 in cells, a mechanism-based assay using DOHH2 (DSMZ No.® ACC 47) and RS4; 11 (ATCC® CRL-1873™) cell was developed. In this assay, inhibition of Bcl-2 was detected by the inhibition of DOHH2 and RS4; 11 cells proliferation. DOHH2 and RS4; 11 cells were cultured in culture flasks to 40-80% confluence in RPMI-1640 plus 10% fetal bovine serum. Cells were collected and plated onto 96-well plates at desired cell density (DOHH2: 5000 cells/well; RS4; 11: 30000 cells/well). Plates were incubated overnight at 37° C., with 5% CO2 to adhere. Compounds were added to the plates, and the final compound concentrations were 10000, 3333, 1111, […], 124, 41, 14, 4.6 and 1.5 nM. Plates plated with DOHH2 or RS4; 11 cells were placed at 37° C., with 5% CO2 for 120 h (DOHH2) or 72 h (RS4; 11) respectively. 20 μl MTS/100 μl medium mixture solution were added to each well and incubate the plates for exactly 2 hours. The reaction was stopped by adding 25 μl 10% SDS per well. Measure absorbance at 490 nm and 650 nm (reference wavelength). ICso was calculated using GraphPad Prism 5.0.

[1] = RS4, 11 (ATCC CRL-1873) cell proliferation, 30000 cells/well, 72 h, MTS, mechanism-based readout of Bcl-2 inhibition, 11 IC50
[2] = DOHH2 (DSMZ ACC 47) cell proliferation, 5000 cells/well, 120 h, MTS, mechanism-based readout of Bcl-2 inhibition, read-out: DOHH2 IC50

IC50 (RS4; 11 cells; [1]) [nM]	Compound	IC50 (DOHH2 cells; [2]) [nM]	IC50 (RS4; 11 cells; 11 IC50 (nM)) [nM]	IC50 (DOHH2 cells; read-out: DOHH2 IC50 (nM)) [nM]
35	CC1(C)CCC(CN2CCN(c3ccc(C(=O)NS(=O)(=O)c4ccc(NCC5CC(N=S(C)(C)=O)C5)c([N+](=O)[O-])c4)c(Oc4cnc5[nH]ccc5c4)c3)CC2)=C(c2ccc(Cl)cc2)C1 (centres unmarked) [Example 59, 2-((1H-pyrrolo[2,3-b]pyridin-5-yl)oxy)-4-(4-((4′-chloro-5,5-dimethyl-3,4,5,6-tetrahydro-[1,1′-biphenyl]-2-yl)methyl)piperazin-1-yl)-N-((4-(((3-((dimethyl(oxo)-λ^6-sulfanylidene)amino)cyclobutyl)methyl)amino)-3-nitrophenyl)sulfonyl)benzamide]	82		
6	CC1(C)CCC(CN2CCN(c3ccc(C(=O)NS(=O)(=O)c4ccc(NCC5(F)CCC(N=S(C)(C)=O)CC5)c([N+](=O)[O-])c4)c(Oc4cnc5[nH]ccc5c4)c3)CC2)=C(c2ccc(Cl)cc2)C1 (centres unmarked) [Example 58, 2-((1H-pyrrolo[2,3-b]pyridin-5-yl)oxy)-4-(4-((4′-chloro-5,5-dimethyl-3,4,5,6-tetrahydro-[1,1′-biphenyl]-2-yl)methyl)piperazin-1-yl)-N-((4-(((4-((dimethyl(oxo)-λ^6-sulfanylidene)amino)-1-fluorocyclohexyl)methyl)amino)-3-nitrophenyl)sulfonyl)benzamide]	16		
43	CCN=S1(=O)CCC(CNc2ccc(S(=O)(=O)NC(=O)c3ccc(N4CCN(CC5=C(c6ccc(Cl)cc6)CC(C)(C)CC5)CC4)cc3Oc3cnc4[nH]ccc4c3)cc2[N+](=O)[O-])CC1 (centres unmarked) [Example 30, 2-((1H-pyrrolo[2,3-b]pyridin-5-yl)oxy)-4-(4-((4′-chloro-5,5-dimethyl-3,4,5,6-tetrahydro-[1,1′-biphenyl]-2-yl)methyl)piperazin-1-yl)-N-((4-(((1-(ethylimino)-1-oxidohexahydro-1λ^6-thiopyran-4-yl)methyl)amino)-3-nitrophenyl)sulfonyl) benzamide]	132		
56	COC(=O)N=S1(=O)CCC(CNc2ccc(S(=O)(=O)NC(=O)c3ccc(N4CCN(CC5=C(c6ccc(Cl)cc6)CC(C)(C)CC5)CC4)cc3Oc3cnc4[nH]ccc4c3)cc2[N+](=O)[O-])CC1 (centres unmarked) [Example 61, methyl(4-(((4-(N-(2-((1H-pyrrolo[2,3-b]pyridin-5-yl)oxy)-4-(4-((4′-chloro-5,5-dimethyl-3,4,5,6-tetrahydro-[1,1′-biphenyl]-2-yl)methyl)piperazin-1-yl)benzoyl)sulfamoyl)-2-nitrophenyl)amino)methyl)-1-oxidotetrahydro-2H-1λ^6-thiopyran-1-ylidene) carbamate]	161		
28	CCN=S1(=O)CCN(C[C@H](C)Nc2ccc(S(=O)(=O)NC(=O)c3ccc(N4CCN(CC5=C(c6ccc(Cl)cc6)CC(C)(C)CC5)CC4)cc3Oc3cnc4[nH]ccc4c3)cc2[N+](=O)[O-])CC1 [Example 38, (S)-((1H-pyrrolo[2,3-b]pyridin-5-yl)oxy)-4-(4-((4′-chloro-5,5-dimethyl-3,4,5,6-tetrahydro-[1,1′-biphenyl]-2-yl)methyl)piperazin-1-yl)-N-((4-((1-(1-(ethylimino)-1-oxido-1λ^6-thiomorpholino)propan-2-yl)amino)-3-nitrophenyl)sulfonyl) benzamide]	108		
55	CN=S1(=O)CCN(C[C@H](C)Nc2ccc(S(=O)(=O)NC(=O)c3ccc(N4CCN(CC5=C(c6ccc(Cl)cc6)CC(C)(C)CC5)CC4)cc3Oc3cnc4[nH]ccc4c3)cc2[N+](=O)[O-])CC1 [Example 7, (S)-2-((1H-pyrrolo[2,3-b]pyridin-5-yl)oxy)-4-(4-((4′-chloro-5,5-dimethyl-3,4,5,6-tetrahydro-[1,1′-biphenyl]-2-yl)methyl)piperazin-1-yl)-N-((4-((1-(1-(methylimino)-1-oxido-1λ^6-thiomorpholino)propan-2-yl)amino)-3-nitrophenyl)sulfonyl)benzamide]	111		
	CCS(=O)(CC)=NC1CCC(CNc2ccc(S(=O)(=O)NC(=O)c3ccc(N4CCN(CC5=C(c6ccc(Cl)cc6)CC(C)(C)CC5)CC4)cc3Oc3cnc4[nH]ccc4c3)cc2[N+](=O)[O-])CC1 (centres unmarked) [Example 9B, 2-((1H-pyrrolo[2,3-b]pyridin-5-yl)oxy)-4-(4-((4′-chloro-5,5-dimethyl-3,4,5,6-tetrahydro-[1,1′-biphenyl]-2-yl)methyl)piperazin-1-yl)-N-((4-((((1r,4r)-4-((diethyl(oxo)-λ^6-sulfanylidene)amino)cyclohexyl)methyl)amino)-3-nitrophenyl)sulfonyl)benzamide]		5	11
21	CCS(=O)(CC)=NC1CC(CNc2ccc(S(=O)(=O)NC(=O)c3ccc(N4CCN(CC5=C(c6ccc(Cl)cc6)CC(C)(C)CC5)CC4)cc3Oc3cnc4[nH]ccc4c3)cc2[N+](=O)[O-])C1 (centres unmarked) [Example 60, 2-((1H-pyrrolo[2,3-b]pyridin-5-yl)oxy)-4-(4-((4′-chloro-5,5-dimethyl-3,4,5,6-tetrahydro-[1,1′-biphenyl]-2-yl)methyl)piperazin-1-yl)-N-((4-(((3-((diethyl(oxo)-λ^6-sulfanylidene)amino)cyclobutyl)methyl)amino)-3-nitrophenyl)sulfonyl)benzamide]	49		
18	CC1(C)CCC(CN2CCN(c3ccc(C(=O)NS(=O)(=O)c4ccc(NCC5CCOCC5)c([N+](=O)[O-])c4)c(Oc4cnc5[nH]ccc5c4)c3)CC2)=C(c2ccc(Cl)cc2)C1 [Reference compound 1, 2-((1H-pyrrolo[2,3-b]pyridin-5-yl)oxy)-4-(4-((4′-chloro-5,5-dimethyl-3,4,5,6-tetrahydro-[1,1′-biphenyl]-2-yl)methyl)piperazin-1-yl)-N-((3-nitro-4-(((tetrahydro-2H-pyran-4-yl)methyl)amino)phenyl)sulfonyl)benzamide, reference compound]	57		
216	CC1(C)CCC(CN2CCN(c3ccc(C(=O)NS(=O)(=O)c4ccc(NCC5CCC(N=S6(=O)CCCC6)CC5)c(S(=O)(=O)C(F)(F)F)c4)c(Oc4cnc5[nH]ccc5c4)c3)CC2)=C(c2ccc(Cl)cc2)C1 (centres unmarked) [Example 64, 2-((1H-pyrrolo[2,3-b]pyridin-5-yl)oxy)-4-(4-((4′-chloro-5,5-dimethyl-3,4,5,6-tetrahydro-[1,1′-biphenyl]-2-yl)methyl)piperazin-1-yl)-N-((4-(((4-((1-oxidotetrahydro-1λ^6-thiophen-1-ylidene)amino)cyclohexyl)methyl)amino)-3-((trifluoromethyl)sulfonyl)phenyl)sulfonyl)benzamide]	320		
184	CC(C)OC(=O)N=S1(=O)CCN(CC[C@H](C)Nc2ccc(S(=O)(=O)NC(=O)c3ccc(N4CCN(CC5=C(c6ccc(Cl)cc6)CC(C)(C)CC5)CC4)cc3Oc3cnc4[nH]ccc4c3)cc2S(=O)(=O)C(F)(F)F)CC1 [Example 93, isopropyl (S)-(4-(3-((4-(N-(2-((1H-pyrrolo[2,3-b]pyridin-5-yl)oxy)-4-(4-((4′-chloro-5,5-dimethyl-3,4,5,6-tetrahydro-[1,1′-biphenyl]-2-yl)methyl)piperazin-1-yl)benzoyl)sulfamoyl)-2-((trifluoromethyl)sulfonyl)phenyl)amino)butyl)-1-oxido-1λ^6-thiomorpholin-1-ylidene) carbamate]	537		
68	CCOC(=O)N=S1(=O)CCN(C[C@H](C)Nc2ccc(S(=O)(=O)NC(=O)c3ccc(N4CCN(CC5=C(c6ccc(Cl)cc6)CC(C)(C)CC5)CC4)cc3Oc3cnc4[nH]ccc4c3)cc2[N+](=O)[O-])CC1 [Example 72, ethyl (S)-(4-(2-((4-(N-(2-((1H-pyrrolo[2,3-b]pyridin-5-yl)oxy)-4-(4-((4′-chloro-5,5-dimethyl-3,4,5,6-tetrahydro-[1,1′-biphenyl]-2-yl)methyl)piperazin-1-yl)benzoyl)sulfamoyl)-2-nitrophenyl)amino)propyl)-1-oxido-1λ^6-thiomorpholin-1-ylidene) carbamate]	119		

Compound	IC50 (RS4; 11 cells; [1]) [nM]	IC50 (DOHH2 cells; [2]) [nM]	IC50 (RS4; 11 cells; 11 IC50 (nM)) [nM]	IC50 (DOHH2 cells; read-out: DOHH2 IC50 (nM)) [nM]
CCS(=O)(CC)=NC1CCC(CNc2ccc(S(=O)(=O)NC(=O)c3ccc(N4CCN(CC5=C(c6ccc(Cl)cc6)CC(C)(C)CC5)CC4)cc3Oc3cnc4[nH]ccc4c3)cc2[N+](=O)[O-])CC1 (centres unmarked) [Example 9A, 2-((1H-pyrrolo[2,3-b]pyridin-5-yl)oxy)-4-(4-((4′-chloro-5,5-dimethyl-3,4,5,6-tetrahydro-[1,1′-biphenyl]-2-yl)methyl)piperazin-1-yl)-N-((4-((((1r,4r)-4-((diethyl(oxo)-λ^6-sulfanylidene)amino)cyclohexyl)methyl)amino)-3-nitrophenyl)sulfonyl)benzamide]	4	67		
